# Data as given in patent publication USRE48461E1, “Modulation of androgen receptor expression” (Ionis Pharmaceuticals, Inc., priority 2012, dated 2021).
# pIC50: −log10 of the molar value. Oligonucleotides are written 5' to 3', each unit as a sugar letter and its base; * is a phosphorothioate linkage, no mark a phosphodiester; rarer units and linkages stand in square brackets, end groups in braces. Plain capitals give the bases only. k = constrained ethyl (cEt); d = 2'-deoxy (DNA)
# Key:
# [1] = system: AR mRNA; experiment: Antisense inhibition of human AR in HuVEC cells, single concentration (electroporation, qRT-PCR RTS3559); type: cell-based
# Outline: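 HuVEC cells electroporated with antisense oligonucleotides at a single concentration. AR mRNA quantified by qRT-PCR using human primer-probe set RTS3559 and normalised to total RNA content by RIBOGREEN.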
# [2] = system: AR mRNA; experiment: Dose-dependent antisense inhibition of human AR in HuVEC cells (electroporation, qRT-PCR RTS3559, IC50); type: cell-based
# Outline: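 HuVEC cells dosed with antisense oligonucleotides by electroporation and treated approximately 16 hours. AR mRNA quantified by real-time qPCR with primer probe set RTS3559 and normalised to total RNA by RIBOGREEN; IC50 from dose-response.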
substance,measurement,setting,value
549458 (kG*kT*kT*dG*dA*dT*dT*dT*dA*dA*dT*dG*dG*kT*kT*kG) [compound 549458],% inhibition,"[1]; 250 nM ASO, ~24 h, Table 7",71%
same,% inhibition,"[1]; 500 nM ASO, electroporation, ~24 h, Table 2",95%
same,% inhibition,"[1]; 500 nM ASO, ~24 h, Table 5",94%
same,% inhibition,"[1]; 500 nM ASO, ~24 h, Table 16",60%
same,% inhibition,"[1]; 500 nM ASO, ~24 h, Table 17",46%
same,% inhibition,"[1]; 500 nM ASO, ~24 h, Table 18",48%
same,% inhibition,"[1]; 1,000 nM ASO, ~24 h, Table 13",87%
same,% inhibition,"[1]; 1,000 nM ASO, ~24 h, Table 26",79%
same,% inhibition,"[1]; Table 19, 500 nM oligonucleotide, electroporation, approximately 24 hours, relative to untreated control",50%
same,% inhibition,"[1]; Table 20, 500 nM oligonucleotide, electroporation, approximately 24 hours, relative to untreated control",54%
same,% inhibition,"[1]; Table 21, 500 nM oligonucleotide, electroporation, approximately 24 hours, relative to untreated control",47%
same,% inhibition,"[1]; Table 22, 500 nM oligonucleotide, electroporation, approximately 24 hours, relative to untreated control",39%
same,% inhibition,"[1]; Table 23, 500 nM oligonucleotide, electroporation, approximately 24 hours, relative to untreated control",51%
same,% inhibition,"[1]; Table 24, 1,000 nM oligonucleotide, electroporation, approximately 24 hours, relative to untreated control",88%
same,% inhibition,"[1]; Table 25, 1,000 nM oligonucleotide, electroporation, approximately 24 hours, relative to untreated control",76%
same,% inhibition,"[1]; Table 27, 1,000 nM oligonucleotide, electroporation, approximately 24 hours, relative to untreated control",76%
same,% inhibition,"[1]; Table 28, 1,000 nM oligonucleotide, electroporation, approximately 24 hours, relative to untreated control",65%
same,percent inhibition of AR,"[2]; 31.25 nM, HuVEC, ~16 h, Table 6",15%
same,percent inhibition of AR,"[2]; 31.25 nM, HuVEC, ~16 h, Table 8",30%
same,percent inhibition of AR,"[2]; 31.25 nM, HuVEC, ~16 h, Table 14",0%
same,percent inhibition of AR,"[2]; 46.9 nM, HuVEC, ~16 h, Table 15",15%
same,percent inhibition of AR,"[2]; 55.6 nM, HuVEC, ~16 h, Table 4",48%
same,percent inhibition of AR,"[2]; 62.5 nM, HuVEC, ~16 h, Table 6",25%
same,percent inhibition of AR,"[2]; 62.5 nM, HuVEC, ~16 h, Table 8",36%
same,percent inhibition of AR,"[2]; 62.5 nM, HuVEC, ~16 h, Table 10",25%
same,percent inhibition of AR,"[2]; 62.5 nM, HuVEC, ~16 h, Table 11",16%
same,percent inhibition of AR,"[2]; 62.5 nM, HuVEC, ~16 h, Table 12",19%
same,percent inhibition of AR,"[2]; 62.5 nM, HuVEC, ~16 h, Table 14",19%
same,percent inhibition of AR,"[2]; 125.0 nM, HuVEC, ~16 h, Table 6",47%
same,percent inhibition of AR,"[2]; 125.0 nM, HuVEC, ~16 h, Table 8",54%
same,percent inhibition of AR,"[2]; 125.0 nM, HuVEC, ~16 h, Table 10",46%
same,percent inhibition of AR,"[2]; 125.0 nM, HuVEC, ~16 h, Table 11",22%
same,percent inhibition of AR,"[2]; 125.0 nM, HuVEC, ~16 h, Table 12",22%
same,percent inhibition of AR,"[2]; 125.0 nM, HuVEC, ~16 h, Table 14",40%
same,percent inhibition of AR,"[2]; 166.7 nM, HuVEC, ~16 h, Table 4",84%
same,percent inhibition of AR,"[2]; 187.5 nM, HuVEC, ~16 h, Table 15",50%
same,percent inhibition of AR,"[2]; 500.0 nM, HuVEC, ~16 h, Table 4",97%
same,percent inhibition of AR,"[2]; 500.0 nM, HuVEC, ~16 h, Table 6",88%
same,percent inhibition of AR,"[2]; 500.0 nM, HuVEC, ~16 h, Table 8",85%
same,percent inhibition of AR,"[2]; 500.0 nM, HuVEC, ~16 h, Table 10",64%
same,percent inhibition of AR,"[2]; 500.0 nM, HuVEC, ~16 h, Table 11",64%
same,percent inhibition of AR,"[2]; 500.0 nM, HuVEC, ~16 h, Table 12",38%
same,percent inhibition of AR,"[2]; 500.0 nM, HuVEC, ~16 h, Table 14",74%
same,percent inhibition of AR,"[2]; 750.0 nM, HuVEC, ~16 h, Table 15",85%
same,percent inhibition of AR,"[2]; 1000.0 nM, HuVEC, ~16 h, Table 6",93%
same,percent inhibition of AR,"[2]; 1000.0 nM, HuVEC, ~16 h, Table 8",90%
same,percent inhibition of AR,"[2]; 1000.0 nM, HuVEC, ~16 h, Table 10",78%
same,percent inhibition of AR,"[2]; 1000.0 nM, HuVEC, ~16 h, Table 11",74%
same,percent inhibition of AR,"[2]; 1000.0 nM, HuVEC, ~16 h, Table 12",71%
same,percent inhibition of AR,"[2]; 1000.0 nM, HuVEC, ~16 h, Table 14",90%
same,percent inhibition of AR,"[2]; 1500.0 nM, HuVEC, ~16 h, Table 4",98%
same,percent inhibition of AR,"[2]; 3000.0 nM, HuVEC, ~16 h, Table 15",96%
same,pIC50,"[2]; HuVEC cells, electroporation",6.72
same,inhibition of AR mRNA at 46.9 nM,"[2]; HuVEC cells, electroporation, 46.9 nM ASO",15%
same,inhibition of AR mRNA at 187.5 nM,"[2]; HuVEC cells, electroporation, 187.5 nM ASO",50%
same,inhibition of AR mRNA at 750.0 nM,"[2]; HuVEC cells, electroporation, 750.0 nM ASO",85%
same,inhibition of AR mRNA at 3000.0 nM,"[2]; HuVEC cells, electroporation, 3000.0 nM ASO",96%
same,pIC50,"[2]; HuVEC, ~16 h, Table 4",7.24
same,pIC50,"[2]; HuVEC, ~16 h, Table 6",7.00
same,pIC50,"[2]; HuVEC, ~16 h, Table 8",7.00
same,pIC50,"[2]; HuVEC, ~16 h, Table 10",6.69
same,pIC50,"[2]; HuVEC, ~16 h, Table 11",6.49
same,pIC50,"[2]; HuVEC, ~16 h, Table 12",6.33
same,pIC50,"[2]; HuVEC, ~16 h, Table 14",6.71
same,pIC50,"[2]; HuVEC, ~16 h, Table 15",6.72
same,"percent inhibition of AR, 46.9 nM","[2]; Table 29, 46.9 nM, HuVEC, electroporation, approximately 16 hours",21%
same,"percent inhibition of AR, 187.5 nM","[2]; Table 29, 187.5 nM, HuVEC, electroporation, approximately 16 hours",72%
same,"percent inhibition of AR, 750.0 nM","[2]; Table 29, 750.0 nM, HuVEC, electroporation, approximately 16 hours",91%
same,"percent inhibition of AR, 3000.0 nM","[2]; Table 29, 3000.0 nM, HuVEC, electroporation, approximately 16 hours",97%
same,pIC50,"[2]; Table 29, HuVEC, electroporation, approximately 16 hours",6.96
same,"percent inhibition of AR, 46.9 nM","[2]; Table 30, 46.9 nM, HuVEC, electroporation, approximately 16 hours",22%
same,"percent inhibition of AR, 187.5 nM","[2]; Table 30, 187.5 nM, HuVEC, electroporation, approximately 16 hours",62%
same,"percent inhibition of AR, 750.0 nM","[2]; Table 30, 750.0 nM, HuVEC, electroporation, approximately 16 hours",92%
same,"percent inhibition of AR, 3000.0 nM","[2]; Table 30, 3000.0 nM, HuVEC, electroporation, approximately 16 hours",97%
same,pIC50,"[2]; Table 30, HuVEC, electroporation, approximately 16 hours",6.89
same,"percent inhibition of AR, 46.9 nM","[2]; Table 31, 46.9 nM, HuVEC, electroporation, approximately 16 hours",24%
same,"percent inhibition of AR, 187.5 nM","[2]; Table 31, 187.5 nM, HuVEC, electroporation, approximately 16 hours",59%
same,"percent inhibition of AR, 750.0 nM","[2]; Table 31, 750.0 nM, HuVEC, electroporation, approximately 16 hours",92%
same,"percent inhibition of AR, 3000.0 nM","[2]; Table 31, 3000.0 nM, HuVEC, electroporation, approximately 16 hours",98%
same,pIC50,"[2]; Table 31, HuVEC, electroporation, approximately 16 hours",6.89
same,"percent inhibition of AR, 46.9 nM","[2]; Table 32, 46.9 nM, HuVEC, electroporation, approximately 16 hours",19%
same,"percent inhibition of AR, 187.5 nM","[2]; Table 32, 187.5 nM, HuVEC, electroporation, approximately 16 hours",58%
same,"percent inhibition of AR, 750.0 nM","[2]; Table 32, 750.0 nM, HuVEC, electroporation, approximately 16 hours",89%
same,"percent inhibition of AR, 3000.0 nM","[2]; Table 32, 3000.0 nM, HuVEC, electroporation, approximately 16 hours",96%
same,pIC50,"[2]; Table 32, HuVEC, electroporation, approximately 16 hours",6.82
same,"percent inhibition of AR, 46.9 nM","[2]; Table 33, 46.9 nM, HuVEC, electroporation, approximately 16 hours",21%
same,"percent inhibition of AR, 187.5 nM","[2]; Table 33, 187.5 nM, HuVEC, electroporation, approximately 16 hours",61%
same,"percent inhibition of AR, 750.0 nM","[2]; Table 33, 750.0 nM, HuVEC, electroporation, approximately 16 hours",90%
same,"percent inhibition of AR, 3000.0 nM","[2]; Table 33, 3000.0 nM, HuVEC, electroporation, approximately 16 hours",96%
same,pIC50,"[2]; Table 33, HuVEC, electroporation, approximately 16 hours",6.89
same,"percent inhibition of AR, 46.9 nM","[2]; Table 34, 46.9 nM, HuVEC, electroporation, approximately 16 hours",14%
same,"percent inhibition of AR, 187.5 nM","[2]; Table 34, 187.5 nM, HuVEC, electroporation, approximately 16 hours",53%
same,"percent inhibition of AR, 750.0 nM","[2]; Table 34, 750.0 nM, HuVEC, electroporation, approximately 16 hours",84%
same,"percent inhibition of AR, 3000.0 nM","[2]; Table 34, 3000.0 nM, HuVEC, electroporation, approximately 16 hours",95%
same,pIC50,"[2]; Table 34, HuVEC, electroporation, approximately 16 hours",6.74
same,"percent inhibition of AR, 46.9 nM","[2]; Table 35, 46.9 nM, HuVEC, electroporation, approximately 16 hours",13%
same,"percent inhibition of AR, 187.5 nM","[2]; Table 35, 187.5 nM, HuVEC, electroporation, approximately 16 hours",49%
same,"percent inhibition of AR, 750.0 nM","[2]; Table 35, 750.0 nM, HuVEC, electroporation, approximately 16 hours",84%
same,"percent inhibition of AR, 3000.0 nM","[2]; Table 35, 3000.0 nM, HuVEC, electroporation, approximately 16 hours",91%
same,pIC50,"[2]; Table 35, HuVEC, electroporation, approximately 16 hours",6.72
same,"percent inhibition of AR, 46.9 nM","[2]; Table 36, 46.9 nM, HuVEC, electroporation, approximately 16 hours",1%
same,"percent inhibition of AR, 187.5 nM","[2]; Table 36, 187.5 nM, HuVEC, electroporation, approximately 16 hours",51%
same,"percent inhibition of AR, 750.0 nM","[2]; Table 36, 750.0 nM, HuVEC, electroporation, approximately 16 hours",83%
same,"percent inhibition of AR, 3000.0 nM","[2]; Table 36, 3000.0 nM, HuVEC, electroporation, approximately 16 hours",96%
same,pIC50,"[2]; Table 36, HuVEC, electroporation, approximately 16 hours",6.64
